Laboratory results: patent US8901315B2, “Thienopyrazole derivative having PDE7 inhibitory activity” (Daiichi Sankyo Company, Limited, priority 2004, dated 2014)
Structures can show the parent of a compound that is named as a salt. Where two headings read alike, the source gives them in different places.

Experiments:
[1] = target: PDE 7 (phosphodiesterase VII) (Homo sapiens (Human), UniProt Q13946); experiment: PDE 7 inhibiting effect (3H-cAMP hydrolysis, PDE 7 active fraction from MOLT-4 cells); assay type: biochemical; conditions: PDE 7 fraction from MOLT-4 cells, 0.064 μM cAMP, 10 μM rolipram, 2 hours at 25° C., read-out: PDE7 IC50
PDE 7 (phosphodiesterase VII), sequence (Q13946 whole entry): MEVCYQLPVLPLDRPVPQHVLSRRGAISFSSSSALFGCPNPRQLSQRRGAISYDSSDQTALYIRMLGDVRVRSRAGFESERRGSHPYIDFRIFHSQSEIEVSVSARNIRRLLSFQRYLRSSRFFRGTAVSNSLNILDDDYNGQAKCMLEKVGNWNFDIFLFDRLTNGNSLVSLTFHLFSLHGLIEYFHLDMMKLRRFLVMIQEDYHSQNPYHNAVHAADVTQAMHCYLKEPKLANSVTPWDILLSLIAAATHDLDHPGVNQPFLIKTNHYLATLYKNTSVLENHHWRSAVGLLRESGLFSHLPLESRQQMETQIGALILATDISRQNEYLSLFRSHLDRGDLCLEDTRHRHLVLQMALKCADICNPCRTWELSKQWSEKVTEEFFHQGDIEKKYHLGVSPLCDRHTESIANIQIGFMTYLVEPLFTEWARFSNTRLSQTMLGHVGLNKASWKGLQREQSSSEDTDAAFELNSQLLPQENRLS
Description: Methods for Evaluating the PDE 7 Inhibiting Effect
The PDE 7 (phosphodiesterase VII) inhibiting effect of the compounds of the present invention was performed by the following method, which was modified assay method described in Biochemical. Pharmacol. 48(6), 1219-1223 (1994). • (1) The active fraction of PDE 7 (phosphodiesterase VII) was obtained. That is, MOLT-4 (obtainable from ATCC as ATCC No. CRL-1582), which was cell line of human acute lymphoblastic lymphoma T cells, was incubated in RPMI1640 culture medium containing 10% fetal bovine serum to obtain 5×10^8 MOLT-4 cells. The cells were collected by centrifugation and suspended with 10 mL of buffer solution A [25 mM of tris-HCl, 5 mM of 2-mercaptoethanol, 2 mM of benzamidine, 2 mM of EDTA, 0.1 mM of 4-(2-aminoethyl)benzenesulfonyl hydrochloride; pH 7.5], then homogenized by Polytron® homogenizer. The homogenate were centrifuged under 25,000×G for 10 minutes at 4° C. The supernatant was separated and thus obtained supernatant was further centrifuged under 100,000×G for 60 minutes at 4° C., and then filtrated with 0.2 μm filter to obtain the soluble fraction. • (2) The obtained soluble fraction was filled in equilibrium HiTrap Q column (5 mL×2) with buffer solution A, and phosphodiesterase fractions were eluted by 300 mL of buffer solution A with linear gradient from 0 to 0.8 M NaCl concentration. 5 mL each of 60 eluents were collected, and each eluents were examined for cyclic AMP metabolic activities of phosphodiesterase. […] After the reaction, suspension of Sephadex®-QAE in 10 mM of HEPES-Na (pH 7.0) was added to the reaction mixture, and the mixture was left at rest for 5 minutes.

[2] = target: PDE 4 (phosphodiesterase IV); experiment: PDE 4 inhibiting effect (3H-cAMP hydrolysis, PDE 4 active fraction from Balb/c mouse liver); assay type: biochemical; conditions: PDE 4 fraction from Balb/c mice liver, 0.064 μM cAMP, 2 hours at 25° C.; read-out: PDE4 IC50
Description: Methods for Evaluating the PDE 4 Inhibiting Effect
The PDE 4 (phosphodiesterase IV) inhibiting effect of the compounds of the present invention was performed by the following method, which was modified assay method described in Biochemical. […] That is, the livers obtained from three Balb/c mice (male, 12 weeks: obtainable from CLEA Japan, Inc.) were suspended with 30 mL of buffer solution B [20 mM of bis-tris, 5 mM of 2-mercaptoethanol, 2 mM of benzamidine, 2 mM of EDTA, 0.1 mM of 4-(2-aminoethyl)benzenesulfonyl hydrochloride, 50 mM of sodium acetate; pH 6.5], then homogenized by Polytron® homogenizer. The homogenate were centrifuged under 25,000×G for 10 minutes at 4° C. The supernatant was separated and thus obtained supernatant was further centrifuged under 100,000×G for 60 minutes at 4° C., and then filtrated with 0.2 μm filter to obtain the soluble fraction. • (2) The obtained soluble fraction was filled in equilibrium DEAE sepharose column (1×10 cm) with buffer solution B, and phosphodiesterase fractions were eluted by 120 mL of buffer solution B with linear gradient from 0.05 to 1M sodium acetate concentration. 5 mL each of 24 eluents were collected, and each eluents were examined for cyclic AMP metabolic activities of phosphodiesterase. […] After the reaction, suspension of Sephadex®-QAE in 10 mM of HEPES-Na (pH 7.0) was added to the reaction mixture, and the mixture was left at rest for 5 minutes.

IC50 [1]	IC50 [2]	SMILES	also measured
27 nM	1800 nM	COc1cc(NC(=O)c2cc3c(C)nn(C4CCCCC4)c3s2)ccc1NC(C)=O [Example 10, N-[4-(Acetylamino)-3-methoxyphenyl]-1-cyclohexyl-3-methyl-1H-thieno[2,3-c]pyrazole-5-carboxamide]	
53 nM	5000 nM	CCOC(=O)Nc1ccc(NC(=O)c2cc3c(C)nn(C4CCCCC4)c3s2)cc1 [Example 12, Ethyl 4-{[(1-cyclohexyl-3-methyl-1H-thieno[2,3-c]pyrazol-5-yl)-carbonyl]amino}phenylcarbamate]	
33 nM	> 30000 nM	CNC(=O)c1ccc(NC(=O)c2cc3c(C)nn(C4CCCCC4)c3s2)cc1 [Example 20]	
84 nM	2500 nM	CCC(=O)N1CCc2cc(NC(=O)c3cc4c(C)nn(C5CCCCC5)c4s3)ccc21 [Example 21, 1-Cyclohexyl-3-methyl-N-(1-propionyl-2,3-dihydro-1H-indol-5-yl)-1H-thieno-[2,3-c]pyrazole-5-carboxamide]	
50 nM	30000 nM	CCNC(=O)c1ccc(NC(=O)c2cc3c(C)nn(C4CCCCC4)c3s2)cc1 [Example 28, 1-Cyclohexyl-N-{4-[(ethylamino)carbonyl]phenyl}-3-methyl-1H-thieno[2,3-c]pyrazole-5-carboxamide]	
95 nM	2500 nM	Cc1nn(C2CCCCC2)c2sc(C(=O)Nc3ccc(C(=O)N4CCN(C)CC4)cc3)cc12 [Example 32, 1-Cyclohexyl-3-methyl-N-{4-[(4-methyl-1-piperazinyl)carbonyl]-phenyl}-1H-thieno[2,3-c]pyrazole-5-carboxamide]	
28 nM	2000 nM	COCCNC(=O)c1ccc(NC(=O)c2cc3c(C)nn(C4CCCCC4)c3s2)cc1 [Example 37, 1-Cyclohexyl-N-(4-{[(2-methoxyethyl)amino]carbonyl}phenyl)-3-methyl-1H-thieno[2,3-c]pyrazole-5-carboxamide]	
21 nM		Cc1nn(C2CCCCC2)c2sc(C(=O)Nc3ccc(N4CCC(O)CC4)cc3)cc12 [Example 114]	

More lines, now with the values behind:

SMILES	IC50 [1]	IC50 [2]	also measured
Cc1nn(C2CCCCC2)c2sc(C(=O)N[C@H]3C[C@@H]3CO)cc12 (racemic) [Example 340, (±)-1-Cyclohexyl-N-[trans-2-(hydroxymethyl)cyclopropyl]-3-methyl-1H-thieno[2,3-c]pyrazole-5-carboxamide]	54 nM	28000 nM	
CC(=O)N1CCc2cc(NC(=O)c3cc4c(C)nn(C5CCCCC5)c4s3)ccc21 [Example 11, N-(1-Acetyl-2,3-dihydro-1H-indo-5-yl)-1-cyclohexyl-3-methyl-1H-thieno[2,3-c]pyrazole-5-carboxamide]	19 nM	2000 nM	
Cc1nn(C2CCCCC2)c2sc(C(=O)Nc3ccc4c(c3)CCN4)cc12 [Example 14, 1-Cyclohexyl-N-(2,3-dihydro-1H-indol-5-yl)-3-methyl-1H-thieno[2,3-c]pyrazole-5-carboxamide HCl salt]	88 nM	3700 nM	
Cc1nn(C2CCCCC2)c2sc(C(=O)Nc3ccc4c(c3)CCN4C(=O)C(C)C)cc12 [Example 23]	83 nM	4800 nM	
Cc1nn(C2CCCCC2)c2sc(C(=O)Nc3ccc4c(c3)CCN4C(=O)C(C)(C)C)cc12 [Example 25, 1-Cyclohexyl-N-[1-(2,2-dimethylpropanoyl)-2,3-dihydro-1H-indol-5-yl]-3-methyl-1H-thieno[2,3-c]pyrazole-5-carboxamide]	98 nM	6500 nM	
Cc1nn(C2CCCCC2)c2sc(C(=O)Nc3ccc4c(c3)CC(=O)N4)cc12 [Example 26, 1-Cyclohexyl-3-methyl-N-(2-oxo-2,3-dihydro-1H-indol-5-yl)-1H-thieno[2,3-c]pyrazole-5-carboxamide]	44 nM	3000 nM	
Cc1nn(C2CCCCC2)c2sc(C(=O)Nc3ccc(S(=O)(=O)N4CCN(C)CC4)cc3)cc12 [Example 36, 1-Cyclohexyl-3-methy-N-{4-[(4-methyl-1-piperazinyl)sulfonyl]-phenyl}-1H-thieno[2,3-c]pyrazole-5-carboxamide]	40 nM	25000 nM	
Cc1nn(C2CCCCC2)c2sc(C(=O)Nc3ccc(S(=O)(=O)N4CCN(CCO)CC4)cc3)cc12 [Example 79, 1-Cyclohexyl-N-(4-{[4-(2-hydroethyl)-1-piperazinyl]sulfonyl}-phenyl)-3-methyl-1H-thieno[2,3-c]pyrazole-5-carboxamide]	60 nM		
Cc1nn(C2CCCCC2)c2sc(C(=O)Nc3ccc(N4CCC(O)CC4)c(F)c3)cc12 [Example 159, 1-Cyclohexyl-N-[3-fluoro-4-(4-hydroxy-1-piperidinyl)phenyl]-3-methyl-1H-thieno[2,3-c]pyrazole-5-carboxamide]	35 nM		
CNC(=O)[C@H]1CC[C@H](NC(=O)c2cc3c(C)nn(C4CCCCC4)c3s2)CC1 [Example 237, 1-Cyclohexyl-3-methyl-N-{4-[(methylamino)carbonyl]cyclohexyl}-1H-thieno[2,3-c]pyrazole-5-carboxamide]	7.8 nM		
Cc1nn(C2CCCCC2)c2sc(C(=O)NC3CCN(S(=O)(=O)N(C)C)CC3)cc12 [Example 240, 1-Cyclohexyl-N-{1-[(dimethylamino)sulfonyl]-4-piperidinyl}-3-methyl-1H-thieno[2,3-c]pyrazole-5-carboxamide]	41 nM		
Cc1nn(C2CCCCC2)c2sc(C(=O)N[C@H]3CCN(C(=O)N(C)C)C3)cc12 [Example 246, 1-Cyclohexyl-N-{(3S)-1-[(dimethylamino)carbonyl]pyrrolidinyl}-3-methyl-1H-thieno[2,3-c]pyrazole-5-carboxamide HCl salt]	51 nM		
Cc1nn(C2CCCCC2)c2sc(C(=O)N[C@@H]3CCN(C(=O)N(C)C)C3)cc12 [Example 323, 1-Cyclohexyl-N-{(3R)-1-[(dimethylamino)carbonyl]pyrrolidinyl}-3-methyl-1H-thieno[2,3-c]pyrazole-5-carboxamide HCl salt]	71 nM		
Cc1nn(C2CCCCC2)c2sc(C(=O)Nc3ccc(N4CCC(O)CC4)c(F)c3)cc12 [Example 365, 1-cyclohexyl-N-[3-fluoro-4-(4-hydroxy-1-piperidinyl)phenyl]-3-methyl-1H-thieno[2,3-c]pyrazole-5-carboxamide dimethanesulfonate]			IC50 ([1]; dimethanesulfonate): 41 nM
Cc1nn(C2CCCCC2)c2sc(C(=O)Nc3ccc(N4CCC(O)CC4)c(F)c3)cc12 [Example 366, 1-Cyclohexyl-N-[3-fluoro-4-(4-hydroxy-1-piperidinyl)phenyl]-3-methyl-1H-thieno[2,3-c]pyrazole-5-carboxamide p-toluenesulfonate]			IC50 ([1]; p-toluenesulfonate): 49 nM
Cc1nn(C2CCCCC2)c2sc(C(=O)Nc3ccc(N4CCC(O)CC4)cc3)cc12 [Example 367, 1-Cyclohexyl-N-[4-(4-hydroxy-1-piperidinyl)phenyl]-3-methyl-1H-thieno[2,3-c]pyrazole-5-carboxamide methanesulfonate]			IC50 ([1]; methanesulfonate): 20 nM
Cc1nn(C2CCCCC2)c2sc(C(=O)Nc3ccc(N4CCC(O)CC4)cc3)cc12 [Example 368, 1-Cyclohexyl-N-[4-(4-hydroxy-1-piperidinyl)phenyl]-3-methyl-1H-thieno[2,3-c]pyrazole-5-carboxamide p-toluenesulfonate]			IC50 ([1]; p-toluenesulfonate): 26 nM
Cc1nn(C2CCCCC2)c2sc(C(=O)Nc3ccc(CN4CCOCC4)nc3)cc12 [Example 412, 1-Cyclohexyl-3-methyl-N-[6-(4-morpholinylmethyl)-3-pyridinyl]-1H-thieno[2,3-c]pyrazole-5-carboxamide methanesulfonate]	43 nM		
